This is an account of results in patent publication US11058688B2, “Imidazopiperazine inhibitors of transcription activating proteins” (Board of Regents, The University of Texas System, priority 2018, dated 2021).

Structures are written as SMILES.

The target in experiment [1] is GST-CBP(1081-1197) bromodomain (Homo sapiens (Human), UniProt Q92793). Briefly: CBP AlphaScreen Assay. The settings on record: binding to biotin-H4(1-21) Ac-K5/8/12/16 peptide. The gist of the method:
(§1)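 IC50 values derived by variable-slope dose-response fit between negative and DMSO control signals. AlphaScreen signal reports bromodomain association with an H4(1-21) peptide acetylated at K5, K8, K12 and K16.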
On the technique in general: Bead proximity is the source of the signal in Alpha formats.

For experiment [2], the target named is BRD4(49-170) bromodomain (Homo sapiens (Human), UniProt O60885). Nature of the experiment: BRD4 AlphaScreen Assay. Conditions: binding to biotin-H4(1-21) Ac-K5/8/12/16 peptide. The gist of the method: as §1

GST-CBP(1081-1197) bromodomain, sequence (Q92793 1081-1197): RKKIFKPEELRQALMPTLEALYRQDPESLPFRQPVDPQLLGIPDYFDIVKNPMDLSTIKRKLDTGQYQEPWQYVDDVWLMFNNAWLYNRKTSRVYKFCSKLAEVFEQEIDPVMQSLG

Turning to `CC(=O)N1CCn2c(C3CC3)nc(N3CCCc4cc(-c5cnn(Cc6ccccn6)c5)ccc43)c2C1` [Example 116, 1-(3-cyclopropyl-1-(6-(1-(pyridin-2-ylmethyl)-1H-pyrazol-4-yl)-3,4-dihydroquinolin-1(2H)-yl)-5,6-dihydroimidazo[1,5-a]pyrazin-7(8H)-yl)ethan-1-one], the values for the half-maximal inhibitory concentration (IC50) in experiment [1] and in experiment [2] were 1280 nM and greater than 25000 nM, respectively.
For `CNC(=O)c1cc(-c2ccc3c(c2)CCCN3c2nc(C3CC3)n3c2CN(C(C)=O)CC3)ccn1` [Example 117, 4-(1-(7-acetyl-3-cyclopropyl-5,6,7,8-tetrahydroimidazo[1,5-a]pyrazin-1-yl)-1,2,3,4-tetrahydroquinolin-6-yl)-N-methylpicolinamide], the IC50 in experiment [1] is 739 nM; in experiment [2], greater than 25000 nM.
`CC(=O)N1CCn2c(C3CC3)nc(N3CCCc4cc(-c5ccnc(C(F)(F)F)c5)ccc43)c2C1` [Example 118, 1-(3-cyclopropyl-1-(6-(2-(trifluoromethyl)pyridin-4-yl)-3,4-dihydroquinolin-1(2H)-yl)-5,6-dihydroimidazo[1,5-a]pyrazin-7(8H)-yl)ethan-1-one]: the figures for the concentration for half-maximal inhibition (IC50) in experiment [1] and in experiment [2] were 715 nM and greater than 25000 nM, respectively.
On the same counts, the results for `CC(=O)N1CCn2c(C3CC3)nc(N3CCCc4cc(-c5cnn(C6CCC6)c5)ccc43)c2C1` [Example 119, 1-(1-(6-(1-cyclobutyl-1H-pyrazol-4-yl)-3,4-dihydroquinolin-1(2H)-yl)-3-cyclopropyl-5,6-dihydroimidazo[1,5-a]pyrazin-7(8H)-yl)ethan-1-one] are 313 nM and greater than 25000 nM.
As to `CC(=O)N1CCn2c(C3CC3)nc(N3CCCc4cc(-c5cccc(S(N)(=O)=O)c5)ccc43)c2C1` [Example 120, 3-(1-(7-acetyl-3-cyclopropyl-5,6,7,8-tetrahydroimidazo[1,5-a]pyrazin-1-yl)-1,2,3,4-tetrahydroquinolin-6-yl)benzenesulfonamide], the 50% inhibitory concentration (IC50) is 358 nM in experiment [1] and greater than 25000 nM in experiment [2].
For `CC(=O)N1CCn2c(C3CC3)nc(N3CCCc4cc(-c5cnn(CCO)c5)ccc43)c2C1` [Example 121, 1-(3-cyclopropyl-1-(6-(1-(2-hydroxyethyl)-1H-pyrazol-4-yl)-3,4-dihydroquinolin-1(2H)-yl)-5,6-dihydroimidazo[1,5-a]pyrazin-7(8H)-yl)ethan-1-one], in that order: 576 nM and greater than 25000 nM.
With `CC(=O)N1CCn2c(C3CC3)nc(N3CCCc4cc(-c5cnn(CCN6CCOCC6)c5)ccc43)c2C1` [Example 122, 1-(3-cyclopropyl-1-(6-(1-(2-morpholinoethyl)-1H-pyrazol-4-yl)-3,4-dihydroquinolin-1(2H)-yl)-5,6-dihydroimidazo[1,5-a]pyrazin-7(8H)-yl)ethan-1-one], the concentration for half-maximal inhibition (IC50) was 500 nM in experiment [1] and greater than 25000 nM in experiment [2].
On the same counts, the results for `CNC(=O)N1CCn2c(C3CCOCC3)nc(-c3cccc4nc(-c5cnn(C)c5)c(C(F)F)cc34)c2C1` [Example 123, 1-(3-(difluoromethyl)-2-(1-methyl-1H-pyrazol-4-yl)quinolin-5-yl)-N-methyl-3-(tetrahydro-2H-pyran-4-yl)-5,6-dihydroimidazo[1,5-a]pyrazine-7(8H)-carboxamide] are 19 nM and greater than 25000 nM.
For `CNC(=O)N1CCn2c(C3CC3)nc(-c3cccc4cc(-c5cnn(C)c5)ncc34)c2C1` [Example 124, 3-cyclopropyl-N-methyl-1-(3-(1-methyl-1H-pyrazol-4-yl)isoquinolin-8-yl)-5,6-dihydroimidazo[1,5-a]pyrazine-7(8H)-carboxamide], in that order: 2 nM and 6480 nM.
For `CNC(=O)N1Cc2c(-c3cccc4cc(-c5cnn(C)c5)ncc34)nc(C3CC3)n2CC1C` (stereo not shown) [Example 125, 3-cyclopropyl-N,6-dimethyl-1-(3-(1-methyl-1H-pyrazol-4-yl)isoquinolin-8-yl)-5,6-dihydroimidazo[1,5-a]pyrazine-7(8H)-carboxamide], in that order: 19 nM and greater than 10000 nM.
For `CNC(=O)N1Cc2c(-c3cccc4cc(-c5cnn(C)c5)ncc34)nc(C3CC3)n2C(C)C1` (stereo not shown) [Example 126, 3-cyclopropyl-N,5-dimethyl-1-(3-(1-methyl-1H-pyrazol-4-yl)isoquinolin-8-yl)-5,6-dihydroimidazo[1,5-a]pyrazine-7(8H)-carboxamide], the concentration for half-maximal inhibition (IC50) came to 39 nM in experiment [1] and 17100 nM in experiment [2].

The term IC50 denotes the concentration that inhibits the measured activity by half. Low values mean greater potency in that assay, high ones weaker potency in that assay.
